In patent publication US10952940B2, “Reagents and methods for mineralization of tooth enamel” (UNIVERSITY OF WASHINGTON, priority 2016, dated 2021):
Entries after “also recorded” stand apart in the source; their conditions may differ.

Tests used:
Parameters in all cases: species or system human
[1] = Remineralization of artificial white spot lesions, SEM and EDXS analyses of new mineral layer; conditions: for thickness of newly formed mineral layer: SEM of cross-sectioned samples, 1 hour treatment
Description: Extracted teeth with no visible white spot lesions, caries, or any other kind of restorations were collected from dental clinics around the King County area (WA, USA) and disinfected in 10% aqueous bleach solutions. Prior to the experiments, the teeth were cleaned to remove visible blood, gross debris and soft connective tissue using a dental scaler under a light microscope.
Enamel was demineralized to create artificial lesions to mimic white spot lesions and/or incipient caries. The teeth were covered by lacquer leaving a 4-mm wide square window in the enamel close to cemento-enamel junction. The exposed areas of 4×4 mm enamel were treated with a cocktail of acetic acid/CaCl2/KH2PO4 for 2 weeks to establish up to 200 μm deep artificially created non-cavitated white spot lesions (WSL). Samples were then divided into control and test groups. Test groups were treated either with peptide, fluoride, or combination of both (Table 5).
Prior to remineralization, samples requiring peptide treatments (Groups 5 & 6) were incubated in 50 μL of 0.8 mM peptide dissolved in 50 mM Tris Buffer Solution (TBS) (pH:7.4) for 10 minutes at 37° C. Next, treatment samples were exposed to 50 mM TBS containing Ca^2+/PO4^3− (Groups 2, 5) or Ca^2+/PO4^3−/F^− (Groups 3, 4, 6) at concentrations as listed in Table 5 for 1 hour at 37° C., then rinsed with de-ionized (DI) water, dried by forced air and stored at room temperature until characterization.
After re-mineralization experiments were completed, secondary electron imaging (SEI) in the scanning electron microscope (SEM) was used to characterize the surface morphology and to show the thickness of newly formed mineral layer in cross-sections where applicable. Specimen preparation for SEM involved cutting a notch on the back side using a low speed saw (IsoMet™, Buehler, Lake Bluff, Ill., USA) before they were subjected to WSL formation and remineralization as described above. After remineralization step was completed, specimens were rinsed with DI water, air dried gently (<5 PSI), then carefully fractured into 2 pieces along the notch. One of the fractured pieces was mounted on a SEM stub with the mineralizing surface facing up for imaging the surface morphology and second piece was mounted with the cross-section facing up to show the thickness of mineral layer. Mounted specimens were then stored in vacuum for at least 2 hours to remove residual moisture which were then sputter coated with 5-nm thick platinum (SPI-Sputter Module Coater, SPI Supplies, West Chester, Pa., USA). SEM characterization was performed using an FEI Sirion microscope (Sirion, FEI, Hillboro, Oreg., USA) operating at 10 kV acceleration voltage. The chemical composition was measured by an onboard energy dispersive X-ray spectroscopy (EDXS) system (X-Max^N Si drift detector with AZtecEnergy software package, Oxford Instruments, Abingdon, Oxfordshire, UK). The measurements for each group were pooled from 5 specimens per group. The average values and standard deviations were calculated and expressed as the mean±standard error.

[2] = Structural characterization of remineralized layer by TEM; conditions: TEM of fragments shaved off the surface; listed as group 6
Protocol: After remineralization steps were completed, TEM samples were collected by carefully shaving off the top most surface of the remineralized layer from the artificially created white spot lesion using a clean razor blade. The shaved particles were suspended in 100% ethanol, and the suspension was drop-casted onto a carbon coated TEM grid, which was then vacuum dried before TEM characterization. TEM bright field imaging (BF) imaging and selected areas diffraction were carried out using an FEI Tecnai (FEI, Hillboro, Oreg., USA) operating at 200 keV.
Structural and phase characterization of the samples from all groups were undertaken by transmission electron microscopy imaging and diffraction analysis. This is because x-ray diffraction characterization requires large enough volume with 10s of lam mass thickness and larger spatial sampling, 100s of μms or larger areas. Since the mineralized layer is thin, a few μms in all other group samples to 10 μm or so in group 6 samples using the peptide, TEM has been used to provide the most critical data, diffraction and phase identification. The TEM samples were prepared by gently shaving fragments off the surface of tooth specimens onto carbon-coated TEM grid to prepare and ensure electron transparent sections. All of the TEM data is included in FIG. 13 below for completeness (while only 1st, 4th and 6th columns of data were presented in FIG. 11).

[3] = Solution mineralization approach, color measurements with Chroma Meter; conditions: peptide 10 min, calcium/phosphate ions 2 hours, 37° C.; 25 rounds
Description: The root site of an extracted human tooth was removed and the crown portion of the tooth was sectioned vertically into half. A thin layer of enamel was removed from one half of the sectioned tooth such that the dentin layer is exposed without completely removing the enamel on the tooth. This allowed imaging of the enamel surfaces after the mineralization experiment without the problem of surface reflection, and provides a more parallel surface from which to compare the whiteness results. The sectioned tooth was fixed onto a glass slide with epoxy. Initial color measurements of each of the four sides of the sectioned tooth were obtained using a Minolta Chroma Meter CR-200 (Konica Minolta, Tokyo, Japan), according to manufacturer instructions, using a white background and a black background. The sectioned tooth was incubated in a mineralization polypeptide solution for 10 minutes at 37° C. and then in a solution with calcium ions and phosphate ions for 2 hours at 37° C. Color measurements of each of the four sides of the sample were taken as described initially. The sectioned was rinsed with deionized water and the remineralization process (incubation in polypeptide solution, incubation in solution of ion sources, and rinsing with deionized water) was repeated for a total of 25 rounds. The mineralization polypeptide was SYENSHSQAINVDRT (shADP5; SEQ ID NO:16).

[4] = EDXS, 1 hour treatment at 37° C.

## SYENSHSQAINVDRT [shADP5, 15-amino acid long amelogenin-derived peptide, shortened human ADP5]
[1]; EDXS
  delivery of fluoride into the mineral layer: allows the delivery and incorporation of fluoride ions into the remineralized layer even at low F concentrations
[1]; [4]
  Possible Mineral Formed: Only HAP
  Remineralized Layer Ca/O: 0.56 ± 0.13
[1]; EDXS, 1 hour treatment at 37° C., listed as 6. Peptide only
  Remineralized Layer Ca/P: 1.56 ± 0.12
[1]; EDXS, 1 hour treatment at 37° C., listed as Group 6
  Remineralized Layer Ca/P: 1.54±0.12
[1]; EDXS, 1 hour treatment at 37° C., listed as Group-6
  Remineralized Layer Ca/P: 1.56
[1]; listed as Group 6
  thickness of newly formed mineral layer: 10 μm
[1]; listed as Group-6
  thickness of newly formed mineral layer: > 10 μm
[1]; listed as Peptide alone
  thickness of newly formed mineral layer: 10 μm
[2]
  structure of mineral found by TEM imaging and diffraction: large particles (in the shown projection) of HAp; also recorded: HAp crystallites with aligned organization
[3]
  whiteness of the tooth enamel: improved with each round of remineralization
